{"source": "patent US20240041830A1", "about": "“CIRCULATING BIOMARKERS OF RESPONSE TO PD-1/PD-L1 BLOCKADE AND GSK-3 INHIBITION” (Brown University, priority 2022, published 2024)", "key": {"[1]": {"tested_on": "HT-29", "test": "microarray analysis", "type": "cell-based, human", "details": "1 μM, 24 hours, vs untreated", "protocol": "Microarrays. A total of 0.5×10^6 tumor cells (HCT-116, HT-29, KM12C) were plated in a 6-well plate and allowed to adhere overnight before 24-hour treatment, as indicated. Then, 1×10^6 immune cells (NK92, TALL-104) were plated and treated with elraglusib as indicated for twenty-four h. RNA was isolated from cell pellets in batches of six using a RNeasy Plus Mini Kit (Cat #74134, Qiagen, Hilden, Germany). Acceptable RNA concentration and quality were verified with Nanodrop and Bioanalyzer measurements. GeneChip™ Human Transcriptome Array 2.0 assays were conducted according to manufacturer instructions in two batches using randomized samples to limit batch effects (Cat #902162, Applied Biosystems, Waltham, MA, USA). Applied Biosystems Transcriptomic Analysis Console (TAC) software (RRID: SCR_016519) was used to calculate fold changes in gene expression relative to the untreated control cells. Values were considered statistically significant for p values<0.05.\nThe inventors then utilized microarray analysis to gain insights into gene expression changes in colorectal cancer cell lines post-GSK-3 inhibition with elraglusib. Several colorectal cancer cell lines (HCT-116, HT-29, KM12C) were treated with elraglusib at IC-50 concentrations or DMSO as vehicle control for twenty-four hours. Treated versus untreated samples were compared in triplicate using microarray analysis FIG. 10. Results were calculated using a fold change (FC) cutoff of >1.5, <−1.5, and a minimum p-value of<0.05. HCT-116 cells had 340 differentially expressed genes post-treatment. FIG. 2C.\nTABLE 9 description. HT-29 CRC cell microarray analysis. HT-29 colorectal cancer cells were treated with 1 μM elraglusib for 24 hours and treated versus untreated control samples were compared in triplicate via microarray analysis (N=3). Table showing differentially expressed genes of interest with their corresponding fold changes, p values, descriptions, and functions. Genes highlighted in yellow are known p53 targets. Genes are ordered by fold change and were calculated using a fold change cutoff of >1.5, <−1.5, and a minimum p value of <0.05."}, "[2]": {"tested_on": "HT-29 GFP+ cells", "test": "single-color GFP+ immune cell co-culture", "quoted_text": "(§2) Single-color immune cell co-culture experiments. A total of 5000 HT-29 GFP+ or HCT 116 GFP+ cells were plated per well in a clear-bottom, black-walled 96-well tissue culture plate and were allowed to adhere overnight. Cells were subsequently treated with DMSO, 5 μM elraglusib, or 5000 TALL-104 or NK-92 cells (for an effector-to-tumor ratio of 1:1) for forty-eight hours. Nine images were taken per well at 10× magnification using a Molecular Devices ImageXpress® Confocal HT.ai High-Content Imaging System and quantified for the number of GFP+ objects using the MetaXpress (RRID: SCR_016654) software (Molecular Devices, San Jose, CA, USA). 40× images were also taken at twenty-four hours for representative images of cellular morphology changes.\n(§3) To determine if pyroptosis-mediated immune cell activity played a role in the co-culture results, the inventors examined higher-power co-culture images for evidence of pyroptosis."}, "[3]": {"tested_on": "HCT 116 GFP+ cells", "test": "single-color GFP+ immune cell co-culture", "quoted_text": "as §2, §3"}, "[4]": {"tested_on": "HCT116", "test": "CellTiter Glo cell viability", "type": "cell-based", "details": "Homo sapiens, HCT-116, treatment up to 50 μM for seventy-two hours", "protocol": "(§1) Measurement of cell viability. Cells were seeded at a density of 3×10^3 cells per well in a 96-well plate (Greiner Bio-One, Monroe, NC, USA). Cell viability was assessed using the CellTiter Glo assay (Promega, Madison, WI, USA). Cells were mixed with 25 μL of CellTiter-Glo reagents in 100 μL of culture volume, and bioluminescence imaging was measured using the Xenogen IVIS imager (Caliper Life Sciences, Waltham, MA). The percent of cell viability was determined by normalizing the luminescence signal to control wells. Dose-response curves were generated, and the half-maximal inhibitory concentration (IC50) was calculated using Graph-Pad Prism (RRID: SCR_002798) version 9.2.0. For IC50 generation, concentrations were log-transformed, and data were then normalized to control, and a log (inhibitor) versus response (three parameters) test was used. A panel of human colorectal cell lines was chosen to provide a varied mutational background (TP53, KRAS, BRAF, TRK, APC, PIK3CA). Cells were treated with elraglusib at doses up to 50 μM for seventy-two hours to determine IC10, IC30, IC50, and IC70. Cytokine, chemokine, and growth factor levels were analyzed in the tumor cell culture supernatants after treatment at IC10, IC30, IC50, and IC70 for forty-eight hours using a Luminex 200 multiplexing instrument. Co-culture experiments were conducted with GFP+ SW480 colorectal cancer cells and either NK-92 natural killer cells or TALL-104 T cells at various effector/target ratios in a 48-well plate, in the presence or absence of elraglusib. The inventors performed cell titer glo analysis to determine IC doses after treatment up to 50 μM for seventy-two hours. See TABLE below of IC50 values for the three cell lines."}, "[5]": {"tested_on": "KM12C", "test": "CellTiter Glo cell viability", "type": "cell-based", "details": "Homo sapiens, treatment up to 50 μM for seventy-two hours", "protocol": "as §1"}, "[6]": {"tested_on": "HT29", "test": "CellTiter Glo cell viability", "type": "cell-based", "details": "Homo sapiens, HT-29, treatment up to 50 μM for seventy-two hours", "protocol": "as §1"}, "[7]": {"test": "Luminex 200 analysis of patient plasma (NCT03678883)", "type": "in vivo, human", "details": "eight hours and twenty-four hours after treatment"}, "[8]": {"details": "co-culture with TALL-104, 5 μM elraglusib"}}, "data": [{"smiles": "Cn1cc(C2=C(c3coc4ccc(F)cc34)C(=O)NC2=O)c2cc3c(cc21)OCO3", "note": "[elraglusib]", "values": [{"measurement": "AEN Fold Change", "setting": "[1]", "value": 2.33}, {"measurement": "AGGF1 Fold Change", "setting": "[1]", "value": "−2.21"}, {"measurement": "B2M Fold Change", "setting": "[1]", "value": 2.41}, {"measurement": "BARD1 Fold Change", "setting": "[1]", "value": "−5.06"}, {"measurement": "BCCIP Fold Change", "setting": "[1]", "value": 1.61}, {"measurement": "BCL6 Fold Change", "setting": "[1]", "value": "−3.43"}, {"measurement": "BRAF Fold Change", "setting": "[1]", "value": "−1.53"}, {"measurement": "BTN3A2 Fold Change", "setting": "[1]", "value": "−1.58"}, {"measurement": "CCAR1 Fold Change", "setting": "[1]", "value": 1.56}, {"measurement": "CCNE1 Fold Change", "setting": "[1]", "value": "−2.6"}, {"measurement": "CCNE2 Fold Change", "setting": "[1]", "value": "−5.83"}, {"measurement": "CD14 Fold Change", "setting": "[1]", "value": "−2.63"}, {"measurement": "CD276 Fold Change", "setting": "[1]", "value": "−1.56"}, {"measurement": "CDC25C Fold Change", "setting": "[1]", "value": "−2.45"}, {"measurement": "CDC45 Fold Change", "setting": "[1]", "value": "−1.75"}, {"measurement": "CDCA3 Fold Change", "setting": "[1]", "value": "−1.7"}, {"measurement": "CDK1 Fold Change", "setting": "[1]", "value": "−3.05"}, {"measurement": "CDK2 Fold Change", "setting": "[1]", "value": "−2.23"}, {"measurement": "CDKN1A Fold Change", "setting": "[1]", "value": 1.72}, {"measurement": "CRLF3 Fold Change", "setting": "[1]", "value": 1.5}, {"measurement": "DYNC1H1 Fold Change", "setting": "[1]", "value": "−1.7"}, {"measurement": "E2F7 Fold Change", "setting": "[1]", "value": "−3.82"}, {"measurement": "E2F8 Fold Change", "setting": "[1]", "value": "−3.1"}, {"measurement": "EAPP Fold Change", "setting": "[1]", "value": "−1.58"}, {"measurement": "EGR1 Fold Change", "setting": "[1]", "value": 5.41}, {"measurement": "ERBB2IP Fold Change", "setting": "[1]", "value": "−1.7"}, {"measurement": "FADD Fold Change", "setting": "[1]", "value": "−1.66"}, {"measurement": "FZD7 Fold Change", "setting": "[1]", "value": "−1.71"}, {"measurement": "HIP1 Fold Change", "setting": "[1]", "value": "−1.67"}, {"measurement": "IL17RA Fold Change", "setting": "[1]", "value": "−1.68"}, {"measurement": "IL17RB Fold Change", "setting": "[1]", "value": "−2.03"}, {"measurement": "ITGB6 Fold Change", "setting": "[1]", "value": "−1.91"}, {"measurement": "JAK1 Fold Change", "setting": "[1]", "value": "−1.58"}, {"measurement": "MAP3K1 Fold Change", "setting": "[1]", "value": "−6.1"}, {"measurement": "MCIDAS Fold Change", "setting": "[1]", "value": "−1.61"}, {"measurement": "MDM4 Fold Change", "setting": "[1]", "value": 1.68}, {"measurement": "MTA3 Fold Change", "setting": "[1]", "value": "−1.84"}, {"measurement": "MYD88 Fold Change", "setting": "[1]", "value": "−1.68"}, {"measurement": "NCR3LG1 Fold Change", "setting": "[1]", "value": 1.78}, {"measurement": "NFKBIA Fold Change", "setting": "[1]", "value": "−5.25"}, {"measurement": "NFKBIZ Fold Change", "setting": "[1]", "value": "−2.68"}, {"measurement": "PDS5B Fold Change", "setting": "[1]", "value": "−1.58"}, {"measurement": "PIM1 Fold Change", "setting": "[1]", "value": "−1.75"}, {"measurement": "SFN Fold Change", "setting": "[1]", "value": 1.54}, {"measurement": "SGK1 Fold Change", "setting": "[1]", "value": "−1.75"}, {"measurement": "SMAD3 Fold Change", "setting": "[1]", "value": 1.69}, {"measurement": "SOCS7 Fold Change", "setting": "[1]", "value": 1.74}, {"measurement": "TGFBR3 Fold Change", "setting": "[1]", "value": "−4.82"}, {"measurement": "TNFRSF12A Fold Change", "setting": "[1]", "value": 1.9}, {"measurement": "TNFSF15 Fold Change", "setting": "[1]", "value": "−2.32"}, {"measurement": "TNIK Fold Change", "setting": "[1]", "value": "−1.51"}, {"measurement": "TRAIP Fold Change", "setting": "[1]", "value": 1.83}, {"measurement": "TRIB1 Fold Change", "setting": "[1]", "value": "−9.14"}, {"measurement": "UHRF1 Fold Change", "setting": "[1]", "value": "−1.75"}, {"measurement": "tumor cell death, significance", "setting": "[2]; NK-92 + elraglusib vs elraglusib only", "value": "did not show statistical significance"}, {"measurement": "tumor cell death", "setting": "[2]; NK-92 + elraglusib vs immune cells only and DMSO only", "value": "increased tumor cell death"}, {"measurement": "tumor cell death", "setting": "[2]; TALL-104 + 5 μM elraglusib vs drug-only or T cell-only", "value": "increased tumor cell death"}, {"measurement": "pyroptotic events", "setting": "[2]; [8]", "value": "significant increase"}, {"measurement": "tumor cell death", "setting": "[3]; 5 μM elraglusib and NK-92 vs drug-only or immune-cell-only", "value": "increased tumor cell death"}, {"measurement": "GFP+ cells per low-powered field", "setting": "[3]; 5 μM elraglusib only vs DMSO only, forty-eight hours", "value": "significant decrease"}, {"measurement": "number of GFP+ cells per field", "setting": "[3]; TALL-104 and 5 μM elraglusib vs TALL-104", "value": "significant decrease"}, {"measurement": "pyroptotic events", "setting": "[3]; [8]", "value": "significant increase"}, {"measurement": "IC50", "setting": "[4]", "value": 370, "unit": "nM"}, {"measurement": "IC50", "setting": "[5]", "value": 200, "unit": "nM"}, {"measurement": "IC50", "setting": "[6]", "value": 410, "unit": "nM"}, {"measurement": "plasma cytokines, chemokines, growth factors vs baseline", "setting": "[7]", "value": "upregulated"}]}]}
